Results on two compounds are retold here after article PMC12730333 (Biology, 2025).

SMILES strings stand for the structures. Like-named read-outs stand apart in the source and are kept apart here. Marks after values point to notes of the source that are not given here.

In data set [1] the test system is HepG2 cells. The arrangement: method as in Araújo et al. 120. The note with it: ref Araújo et al. 120; read-out: cytotoxic concentration (compared with CC50 in HepG2); cited from earlier work.
Data set [2] has as its system HepG2 cells. The data set can be described thus: Cytotoxicity assay (Alamar Blue, 24 h) on HepG2 cells. The note with it: 0.5 × 10^5 cells/well. Type of data set: cell-based, human. The method, then:
(§1) HepG2 cells (human hepatocellular carcinoma), VERO cells (African green monkey kidney), and J774.G8 macrophages (murine reticulosarcoma) were maintained in DMEM medium, supplemented with 10% FBS, 1% Pen/Str at 37 °C and 5% CO2 [70, 71]. For the cultivation of L929 fibroblasts (murine fibrosarcoma), RPMI 1640 medium without phenol red, supplemented with 2 mM L-glutamine, 10% FBS, and 1% Pen/Str, was used and maintained under the same conditions of temperature and CO2 as above.
(§2) J774.G8, VERO (10^5 cells/well), HepG2, L929 (0.5 × 10^5 cells/well) cells, and MPMs (3 × 10^5 cells/well) were centrifuged, resuspended in medium, plated in 96-well microplates, and incubated for 24 h under cultivation conditions. Subsequently, they were exposed to different concentrations of the compounds, serially diluted in medium to a final volume of 100 µL/well, and incubated for 24 h at 37 °C and 5% CO2. Cell viability was then assessed using the AB, and data were acquired by spectrophotometry. […] Untreated cells were used as negative controls, and cells exposed to the reference compound (MT) were used as positive controls. The Selectivity Index (SI) was calculated using the ratio SI = CC50 (mammalian cells)/IC50 (promastigote or amastigote forms of L. amazonensis).

Assay in data set [3]: as above
Format: cell-based, human. The note with it: human, HepG2 cells. The procedure: as §1, §2

Data set [4] relates to ex vivo amastigote forms of Leishmania amazonensis LTB0016 strain. Nature of the data set: Cell death by flow cytometry, 7-AAD, ex vivo amastigotes. Particulars: IC50, 24 h, mean ± SD. In general terms: In flow cytometry, cells or beads pass a laser one at a time.
The subject of data set [5] is fibroblasts and macrophages. Set-up: method as in PMID 38917757. Particulars: MB without light treatment; cited from earlier work.
Data set [6] has as its system ex vivo amastigote forms of L. amazonensis LTB0016 strain. Nature of the data set: ROS production by flow cytometry, H2DCFDA, ex vivo amastigotes. Type of data set: cell-based, Leishmania amazonensis. The note with it: exposed to IC50 (AA 10 µM), 24 h.
The test system of a further data set is promastigotes. Particulars: MB without light treatment; cited from earlier work.
In data set [7] the test system is ex vivo amastigote forms of L. amazonensis LTB0016 strain. Nature of the data set: Leishmanicidal activity assay on ex vivo amastigotes (Alamar Blue, 24 h). Particulars: Leishmania amazonensis, 24 h, read-out: IC50 Ama.
Source text: Ex vivo amastigote forms of L. amazonensis (MHOM/BR/77/LTB0016) were harvested and purified from lesions of male BALB/c mice. For this, a suspension containing 10^6 amastigotes was inoculated subcutaneously into the intraplantar region of the hind paw. After 30 days, the animals were euthanized, and their paws were excised and rinsed in 70% ethanol. The epidermis and necrotic tissues were mechanically dissociated. Subsequently, the paws were placed in Petri dishes containing RPMI 1640 medium supplemented with 5% FBS and 2% Pen/Str. […] The supernatant was transferred to another tube, homogenized with a syringe, and centrifuged at 764× g for another 15 min. The supernatant was discarded, and the pellet was resuspended in RPMI 1640 medium [69].
(§3) Promastigotes were kept at 26 °C, whereas amastigotes were kept at 32 °C. After 24 h, parasite viability was assessed using the AB colorimetric method, and the data were analyzed using a spectrophotometer as previously described [74]. […] Wells with medium and without parasites were used as blanks, and wells with medium and untreated parasites were used as negative controls. MT was employed as the reference drug.
The subject of data set [8] is promastigote forms of Leishmania amazonensis PH8 strain. Nature of the data set: Leishmanicidal activity assay on promastigotes (Alamar Blue, 24 h). The note with it: Leishmania amazonensis, 10^6 parasites/mL. Format: cell-based. The method, then: Promastigote forms of Leishmania amazonensis (IFLA/BR/1967/PH8) were obtained from the Instituto Oswaldo Cruz Leishmania collection (CLIOC/Fiocruz). These cultures were maintained in Schneider’s Insect Medium, supplemented with 20% FBS and 1 μL/mL of Pen/Str at 26 °C. In vitro passages were conducted weekly, with promastigotes harvested during the late logarithmic phase for experiments on the 5th day of growth (Figure S1A).
MT was employed as the reference drug.
(Alamar Blue is a resazurin reagent that responds to reducing activity.)

The test system is the same in data set [9]. The data set can be described thus: Cell death by flow cytometry, Annexin V/PI, promastigotes. The note with it: 200 μM, 24 h, preliminary assay (Figure S5); control 99.81%.
Data set [10] can be described thus: Cytotoxicity assay (Alamar Blue, 24 h) on L929 fibroblasts. Format: cell-based, murine. The note with it: mouse, L929 fibroblasts. The procedure:
as §1, §2

Data set [11] has as its system Leishmania amazonensis promastigote forms (PH8 strain).
Procedure: as §3
Data set [12] has as its system promastigote forms of Leishmania amazonensis PH8 strain. The data set can be described thus: ROS production by flow cytometry, H2DCFDA, promastigotes. Particulars: exposed to IC50 (AA 10 µM), 24 h. Type of data set: cell-based.
The test system is the same in data set [13]. The data set can be described thus: Preliminary MB concentration assessment on promastigotes, Neubauer chamber counting, 72 h. Type of data set: cell-based. Particulars: 3.13–200 μM tested. The procedure:
Deyvison Rhuan Vasco-dos-Santos, Juliana Almeida-Silva, Ludmila Ferreira de Almeida Fiuza,
Natalia Vacani-Martins, Zênis Novais da Rocha, Maria de Nazaré Correia Soeiro, Andrea Henriques-Pons,
Eduardo Caio Torres-Santos and Marcos André Vannier-Santos
Evaluation of parasite proliferation after 24 h (B2), 48 h (B3), and 72 h (B4) are shown. Viability was
assessed by counting in a Neubauer chamber. Data represents mean ± SD. (*) p < 0.05 when
compared to negative control by ANOVA and Tukey’s post-test. […]

In data set [14] the test system is ex vivo amastigote forms of L. amazonensis LTB0016 strain. Nature of the data set: Mitochondrial membrane potential (ΔΨm) by flow cytometry, TMRE, ex vivo amastigotes.
The test system of data set [15] is promastigote forms of Leishmania amazonensis PH8 strain. The data set can be described thus: Mitochondrial membrane potential (ΔΨm) by flow cytometry, TMRE, promastigotes. Particulars: exposed to IC50, 24 h.
The subject of another data set is L. amazonensis. The arrangement: method as in Cabral et al. 136. The note with it: MB treatment with PDT; ref Cabral et al. 136; cited from earlier work.
The nature of data set [16]: Cytotoxicity assay (Alamar Blue, 24 h) on VERO cells. Format: cell-based, African green monkey. The note with it: African green monkey, VERO cells. The method, then:
as §1, §2

Data set [17] can be described thus: Cytotoxicity assay (Alamar Blue, 24 h) on J774.G8 macrophages. Type of data set: cell-based, murine. The note with it: mouse, J774.G8 macrophages. The method, then: as §1, §2
Data set [18] can be described thus: Cytotoxicity assay (Alamar Blue, 24 h) on murine peritoneal macrophages. Format: cell-based, Swiss Webster mice. The note with it: male, Swiss Webster, mouse, murine peritoneal macrophages (MPMs, primary cells), 3 × 10^5 cells/well. The method, then: Murine peritoneal macrophages—MPMs (primary cells)—were isolated from male Swiss Webster mice stimulated with 1 mL of 3% Brewer’s thioglycollate medium, administered intraperitoneally. After 96 h, the animals were euthanized, and the MPMs were collected by peritoneal lavage with approximately 10 mL of RPMI 1640 medium. The cell suspension was centrifuged at 382× g for 10 min, and the pellet was resuspended in medium supplemented with 5% FBS, 1% Pen/Str, and 2 mM L-glutamine. All cell cultures were maintained at 37 °C and 5% CO2 [73]. For the experiments, all cell types were cultured until confluency.
as §2

Where [19] appears, read: lower concentrations (37–100 μM).
The mark [20] stands for this setting: exposed to IC50, 24 h, (MT − MC)/MC.

On to `C[C@@H]1[C@H](O)[C@@H](C)/C=C/C=C/C=C/C=C/C=C/C=C/C=C/[C@H](O[C@@H]2O[C@H](C)[C@@H](O)[C@H](N)[C@@H]2O)C[C@@H]2O[C@](O)(C[C@@H](O)C[C@@H](O)[C@H](O)CC[C@@H](O)C[C@@H](O)CC(=O)O[C@H]1C)C[C@H](O)[C@H]2C(=O)O` [Amphotericin B], for which the CC50 in the data set with HepG2 cells [1] is 35.2 µM.

One may read the viability as the share of living cells, or the viability signal relative to a control. As usually defined, the IC50 is the concentration needed to halve the response being measured. Consider `CN(C)c1ccc2nc3ccc(=[N+](C)C)cc-3sc2c1` [MB, methylene blue, reference compound], for which the CC50 in the data set on HepG2 cells [2] is 96 ± 3.28 µM. Also, the CC50 at 24 h in data set [3] (0.5 × 10^5 cells/well) was > 70 µM; in [10] (0.5 × 10^5 cells/well), 322 ± 3.74 µM; in [16] (10^5 cells/well) it was 141 ± 5.58 µM; in data set [17] (10^5 cells/well, read-out: CC50 J744.G8), 206 ± 9.19 µM; in data set [18], 36 ± 3.69 µM. Besides, the viability at 24 h in [3] (setting [19]) is > 50%; in data set [10] (lower concentrations (37–100 μM), read-out: viability of L929 cells), > 50%; in data set [16] (setting [19]), > 50%; in [17] (lower concentrations (37–100 μM), read-out: viability of J774.G8 cells) it was > 50%. In addition, the “cell death (7-AAD) in ex vivo amastigotes” value in [4] is recorded as “highest mortality rate”. Moreover, in data set [5], the “cytotoxicity in fibroblasts and macrophages” value is on record as “no cytotoxicity observed”. Also, in data set [6], the “H2DCFDA MFI, Ex Vivo Amastigotes High Population” value is 140,636.20. Also, the “H2DCFDA MFI, Ex Vivo Amastigotes Low Population” value in [6] turned out to be 3151.50. In addition, the “VIROS, Ex Vivo Amastigotes High Population” value in data set [6] (MT/MC) is listed as 0.90 ± 0.29. The “VIROS, Ex Vivo Amastigotes Low Population” value in [6] (MT/MC) amounted to 1.28 ± 0.46. The values for the IC50 (in the data set on promastigotes; in [7]; in [8]) were 100 µM, 15.7 ± 2.23 µM and 61.4 ± 4.41 µM, respectively. The “viability of promastigotes (AV/PI)” value in [9] is 12.89%. Also, in data set [11] (exposed to IC50), the “proliferation of promastigotes over 24 to 168 h” value is “total inhibition from 96 h”. The “time from which proliferation was significantly (p < 0.05) reduced compared to MT” value in data set [11] (exposed to IC50, 24–168 h) is ≥ 24 h. Besides, the “H2DCFDA MFI, Promastigotes High Population” value in data set [12] is 1,658,186.80 *. In addition, the “H2DCFDA MFI, Promastigotes Low Population” value in [12] was 26,534.03. In data set [13] (48 h), the “concentration from which significant reduction (p < 0.05) at 48 h” value is ≥ 50 µM. In data set [13] (72 h), the “concentration from which total viability loss at 72 h” value was ≥ 12.50 µM. In data set [14] (IC50, 24 h), the “loss of potential (ΔΨm) in HP ex vivo amastigotes / mitochondrial depolarization” value is reported as “up to 61%”. The “decrease of ΔΨm considering both subpopulations” value in [14] (ex vivo amastigotes, LP plus HP, IC50, 24 h) is on record as 98%. The “TMRE MFI, ex vivo Amastigotes High Population” value in data set [14] (exposed to IC50, 24 h) is reported as 317,106.50. In addition, in data set [14] (exposed to IC50, 24 h), the “TMRE MFI, ex vivo Amastigotes Low Population” value is 3237.43. Also, in [14] (setting [20]), the “VIΔΨm, ex vivo Amastigotes High Population” value was −0.61 ± 0.18. Besides, in [14] (setting [20]), the “VIΔΨm, ex vivo Amastigotes Low Population” value is recorded as −0.37 ± 0.32. In addition, in data set [15], the “TMRE MFI, Promastigotes High Population” value is 56,878.47. The “TMRE MFI, Promastigotes Low Population” value in [15] is reported as 2737.60 *. Also, the “VIΔΨm, Promastigotes High Population” value in [15] ((MT − MC)/MC) is given as 0.02 ± 0.03. The “VIΔΨm, Promastigotes Low Population” value in data set [15] ((MT − MC)/MC, negative = depolarization) is −0.41 ± 0.05. Also, the “increase in ROS levels” value with L. amazonensis is on record as 2 fold. The “reduction in ΔΨm” value in the data set with L. amazonensis is given as 60%.
